From patent publication US11464770B2, “Anticancer pharmaceutical composition” (NATIONAL CANCER CENTER, priority 2016, dated 2022) come the findings set out here.

Structures are written as SMILES. Like-named read-outs stand apart in the source and are kept apart here.

The test system of the assay is breast cancer cell lines (e.g. MDA-MB-231, SK-BR-3, MDA-MB-468, HCC1954). Put plainly: Cell based assay, cell viability (CellTiter-Glo), breast cancer cell lines. As to conditions: 72 hours treatment, CellTiter-Glo cell viability. The method, boiled down: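 Each commercial line was plated and allowed 24 h to settle at constant temperature. Compound exposure ran 72 h at final concentrations spanning 0 to 2 μM. Cell viability was then determined by luminescent ATP detection.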

[1] abbreviates: Homo sapiens, BT-20 cells, read-out: IC50, Breast cancer cell line BT-20.
The mark [2] stands for this setting: Homo sapiens, HCC1395 cells, read-out: IC50, Breast cancer cell line HCC1395.
Where [3] appears, read: Homo sapiens, HCC1954 cells, read-out: IC50, Breast cancer cell line HCC1954.
Where [4] appears, read: Homo sapiens, JIMT-1 cells, read-out: IC50, Breast cancer cell line JIMT-1.
[5] abbreviates: Homo sapiens, MCF7 cells, read-out: IC50, Breast cancer cell line MCF7.
The mark [6] stands for this setting: Homo sapiens, MDA-MB-231 cells, read-out: IC50, Breast cancer cell line MDA-MB-231.
[7] abbreviates: Homo sapiens, MDA-MB-468 cells, read-out: IC50, Breast cancer cell line MDA-MB-468.
[8] abbreviates: Homo sapiens, SK-BR-3 cells, read-out: IC50, Breast cancer cell line SK-BR-3.
Setting [9] is: MDA-MB-231-L/DOX cells, read-out: IC50, Breast cancer cell line MDA-MB-231-L/DOX.

Turning to `COc1cccc2[nH]c([S+]([O-])Cc3ccc(S(F)(F)(F)(F)F)cc3)c(C(C)=O)c(=O)c12` (stereo not drawn) [Compound 93, 3-acetyl-5-methoxy-2-((4-(pentafluoro--sulfanyl)benzyl)sulfinyl)quinolin-4(1H)-one], the IC50 under setting [1] was over 2 µM; the IC50 under setting [2] was over 10 µM; the IC50 under setting [3] is over 2 µM; the IC50 under setting [4] is over 10 µM; the IC50 under setting [5] is over 2 µM; the IC50 under setting [6] is over 2 µM. Moreover, the IC50 is over 2 µM under setting [7], over 2 µM under setting [8] and over 2 µM under setting [9].
With `COc1cccc2[nH]c([S+]([O-])Cc3cc(C)on3)c(C(C)=O)c(=O)c12` (stereo not drawn) [Compound 94, 3-acetyl-5-methoxy-2-(((5-methylisoxazol-3-yl)methyl)sulfinyl)quinolin-4(1H)-one], the IC50 reads like this: under setting [1], over 2 µM; under setting [2], over 10 µM; under setting [3], over 2 µM; under setting [4], over 10 µM; under setting [5], over 2 µM; under setting [6], over 2 µM. Further, the IC50 by setting is: under setting [7], 1.85 µM; under setting [8], 1.85 µM; under setting [9], over 2 µM.
On to `Cc1cc(C[S+]([O-])c2[nH]c3c(Br)ccc(Cl)c3c(=O)c2C(=O)C2CC2)no1` (stereo not drawn) [Compound 96, 8-bromo-5-chloro-3-(cyclopropanecarbonyl)-2-(((5-methylisoxazol-3-yl)methyl)sulfinyl)quinolin-4(1H)-one], for which the IC50 under setting [1] is over 2 µM; the IC50 under setting [2] was over 10 µM; the IC50 under setting [3] amounted to 1.04 µM; the IC50 under setting [4] was over 10 µM; the IC50 under setting [5] was over 2 µM; the IC50 under setting [6] is over 2 µM. The IC50 was 0.98 µM under setting [7], 0.98 µM under setting [8] and over 2 µM under setting [9].
With `Cc1cc(C[S+]([O-])c2[nH]c3c(Cl)ccc(Cl)c3c(=O)c2C(=O)C2CC2)no1` (stereo not drawn) [Compound 97, 5,8-dichloro-3-(cyclopropanecarbonyl)-2-(((5-methylisoxazol-3-yl)methyl)sulfinyl)quinolin-4(1H)-one], the IC50 is over 2 µM under setting [1]; over 10 µM under setting [2]; 0.78 µM under setting [3]; over 10 µM under setting [4]; over 2 µM under setting [5]; 1.78 µM under setting [6]. Moreover, the IC50 by setting is: under setting [7], 0.76 µM; under setting [8], 0.76 µM; under setting [9], 1.13 µM.
For `CC(=O)c1c([S+]([O-])Cc2ccc(C#N)s2)[nH]c2c(Br)ccc(Cl)c2c1=O` (stereo not drawn) [Compound 98, 5-(((3-acetyl-8-bromo-5-chloro-4-oxo-1,4-dihydroquinolin-2-yl)sulfinyl)methyl)thiophene-2-carbonitrile], the IC50 runs as follows: under setting [1], over 2 µM; under setting [2], over 10 µM; under setting [3], 1.31 µM; under setting [4], over 10 µM; under setting [5], over 2 µM; under setting [6], 1.86 µM. Also, the IC50 was 1 µM under setting [7], 1 µM under setting [8] and over 2 µM under setting [9].
In the case of `CC(=O)c1c([S+]([O-])Cc2ccc(-n3cccn3)nc2)[nH]c2c(Br)ccc(Cl)c2c1=O` (stereo not drawn) [Compound 99, 2-(((6-(1H-pyrazol-1-yl)pyridin-3-yl)methyl)sulfinyl)-3-acetyl-8-bromo-5-chloroquinolin-4(1H)-one], the IC50 under setting [1] was over 2 µM; the IC50 under setting [2] was over 2 µM; the IC50 under setting [3] came to 0.78 µM; the IC50 under setting [4] is over 10 µM; the IC50 under setting [5] is over 2 µM; the IC50 under setting [6] came to 1.17 µM. The IC50 was 0.67 µM under setting [7], 0.67 µM under setting [8] and over 2 µM under setting [9].
`CC(=O)c1c([S+]([O-])Cc2ccc(N)nc2)[nH]c2c(Br)ccc(Cl)c2c1=O` (stereo not drawn) [Compound 100, 3-acetyl-2-(((6-aminopyridin-3-yl)methyl)sulfinyl)-8-bromo-5-chloroquinolin-4(1H)-one]: the IC50 reads like this: under setting [1], over 2 µM; under setting [2], over 10 µM; under setting [3], over 2 µM; under setting [4], over 10 µM; under setting [5], over 2 µM; under setting [6], over 2 µM. Also, the IC50 is over 2 µM under setting [7], over 2 µM under setting [8] and over 2 µM under setting [9].
For the compound `O=C(c1c([S+]([O-])Cc2ccc(SC(F)(F)F)cc2)[nH]c2c(Br)ccc(Cl)c2c1=O)C1CC1` (stereo not drawn) [Compound 101, 8-bromo-5-chloro-3-(cyclopropanecarbonyl)-2-((4-((trifluoromethyl)thio)benzyl)sulfinyl)quinolin-4(1H)-one], the IC50 by setting is: under setting [1], over 2 µM; under setting [2], over 10 µM; under setting [3], 1.22 µM; under setting [4], over 10 µM; under setting [5], over 2 µM; under setting [6], over 2 µM. Besides, the IC50 is, setting by setting: under setting [7], 1.67 µM; under setting [8], 1.67 µM; under setting [9], over 2 µM.
For `CC(=O)c1c([S+]([O-])Cc2ccc(C(F)(F)F)nc2C)[nH]c2c(Br)ccc(Cl)c2c1=O` (stereo not drawn) [Compound 102, 3-acetyl-8-bromo-5-chloro-2-(((2-methyl-6-(trifluoromethyl)pyridin-3-yl)methyl)sulfinyl)quinolin-4(1H)-one], the IC50 is, setting by setting: under setting [1], over 2 µM; under setting [2], over 10 µM; under setting [3], 1.02 µM; under setting [4], over 10 µM; under setting [5], over 2 µM; under setting [6], 1.72 µM. Also, the IC50 is 1.35 µM under setting [7], 0.85 µM under setting [8] and over 2 µM under setting [9].
For `CC(=O)c1c([S+]([O-])Cc2ccc(NS(C)(=O)=O)cc2)[nH]c2c(Br)ccc(Cl)c2c1=O` (stereo not drawn) [Compound 103, N-(4-(((3-acetyl-8-bromo-5-chloro-4-oxo-1,4-dihydroquinolin-2-yl)sulfinyl)methyl)phenyl)methane-sulfonamide], the IC50 under setting [1] is over 2 µM; the IC50 under setting [2] is over 10 µM; the IC50 under setting [3] is over 2 µM; the IC50 under setting [4] is over 10 µM; the IC50 under setting [5] is over 2 µM; the IC50 under setting [6] is over 2 µM. For the same compound, the IC50 was over 2 µM under setting [7], 1.74 µM under setting [8] and over 2 µM under setting [9].
In the case of `CC(=O)c1c([S+]([O-])Cc2ccc(Cl)nc2)[nH]c2c(Br)ccc(Cl)c2c1=O` (stereo not drawn) [Compound 104, 3-acetyl-8-bromo-5-chloro-2-(((6-chloropyridin-3-yl)methyl)sulfinyl)quinolin-4(1H)-one], the IC50 runs as follows: under setting [1], over 2 µM; under setting [2], over 10 µM; under setting [3], 1.05 µM; under setting [4], over 10 µM; under setting [5], over 2 µM; under setting [6], 1.54 µM. For the same compound, the IC50 is, setting by setting: under setting [7], 1.46 µM; under setting [8], 0.93 µM; under setting [9], over 2 µM.
With `COCCNc1ccc(C[S+]([O-])c2[nH]c3c(Br)ccc(Cl)c3c(=O)c2C(C)=O)cn1` (stereo not drawn) [Compound 105, 3-acetyl-8-bromo-5-chloro-2-(((6-((2-methoxyethyl)amino)pyridin-3-yl)methyl)sulfinyl)quinolin-4(1H)-one], the IC50 is, setting by setting: under setting [1], over 2 µM; under setting [2], over 10 µM; under setting [3], over 2 µM; under setting [4], over 10 µM; under setting [5], over 2 µM; under setting [6], over 2 µM. In addition, the IC50 is over 2 µM under setting [7], over 2 µM under setting [8] and over 2 µM under setting [9].
As for `CC(=O)c1c([S+]([O-])Cc2nonc2C)[nH]c2c(Br)ccc(Cl)c2c1=O` (stereo not drawn) [Compound 106, 3-acetyl-8-bromo-5-chloro-2-(((4-methyl-1,2,5-oxadiazol-3-yl)methyl)sulfinyl)quinolin-4(1H)-one], the IC50 under setting [1] is over 2 µM; the IC50 under setting [2] is over 10 µM; the IC50 under setting [3] was over 2 µM; the IC50 under setting [4] is over 10 µM; the IC50 under setting [5] is over 2 µM; the IC50 under setting [6] is over 2 µM. Also, the IC50 by setting is: under setting [7], over 2 µM; under setting [8], over 2 µM; under setting [9], over 2 µM.
`CC(=O)c1c([S+]([O-])Cc2cnc3[nH]ccc3c2)[nH]c2c(Br)ccc(Cl)c2c1=O` (stereo not drawn) [Compound 107, 2-(((1H-pyrrolo[2,3-b]pyridin-5-yl)methyl)sulfinyl)-3-acetyl-8-bromo-5-chloroquinolin-4(1H)-one]: the IC50 reads like this: under setting [1], over 2 µM; under setting [2], over 10 µM; under setting [3], over 2 µM; under setting [4], over 10 µM; under setting [5], over 2 µM; under setting [6], over 2 µM. Also, the IC50 is over 2 µM under setting [7], over 2 µM under setting [8] and over 2 µM under setting [9].
